Test results from US20040071656A1, “Modulation of heat-shock-protein-based immunotherapies” (priority 2001, published 2004).

Assays:
human CD40 = target: T1, human CD40 (Homo sapiens, UniProt P25942); experiment: Binding to Cos-7 cells transiently transfected with human CD40 cDNA, fluorescence microscopy; format: cell-based; details: 250 nM biotinylated protein, 30 min at 0° C.
T1 construct: CD40 full-length cDNA was cloned by PCR; expressed in transfected cells
Procedure: (§1) Cell culture and fluorescence microscopy. The murine macrophage cell line ANA1 was kindly provided by H. Wagner (Munich, Germany). ANA-1 cells were cultured in VLE-RPMI 1640 (Biochrom), supplemented with 10% FCS, 2 mM L-glutamine and antibiotics. For fluorescence microscopy, ANA1 cells were either stimulated with LPS (20 μg/ml, Sigma, Germany), or kept in an LPS-free medium (mock treatment) for 7 h. After stimulation, cells were harvested and incubated with 100 nM biotinylated Hsp70, biotinylated GST, or Hsp70/peptide C-biotin complex for 30 min at 0° C. in VLE-RPMI 1640. After incubation cells were processed for staining with streptavidin-TRITC (Sigma, Germany), fixed with paraformaldehyde and analyzed by fluorescence microscopy (Axiovert 35, Zeiss) as described (Sondermann et al., 2000). […] Twenty-four h post-transfection cells were incubated with 250 nM biotinylated Hsp70, biotinylated GST or Hsp70/peptide C-biotin complex for 30 min at 0° C. in DMEM, fixed, stained with streptavidin-TRITC (Sigma, Germany), and analyzed by fluorescence microscopy as described (Sondermann et al., 2000, idem). […] Stably transfected cell lines were analyzed by immunoblotting for CD40 expression using an anti-CD40 antibody (CSA180, Stressgen). […]
Mock-treated and LPS-stimulated ANA-1 cells were analyzed for their expression of CD40. […]

ANA1 cells = experiment: Binding of biotinylated Hsp70 / Hsp70-peptide C-biotin to ANA1 macrophage cells, fluorescence microscopy; format: cell-based, murine; details: 100 nM biotinylated protein
Procedure: as §1
Details for FIG. 1. […] After 30 min at 4° C. cells were washed, incubated with TRITC-labeled streptavidin, washed again, and processed for fluorescence microscopy. […]

T1 sequence (P25942 21-277): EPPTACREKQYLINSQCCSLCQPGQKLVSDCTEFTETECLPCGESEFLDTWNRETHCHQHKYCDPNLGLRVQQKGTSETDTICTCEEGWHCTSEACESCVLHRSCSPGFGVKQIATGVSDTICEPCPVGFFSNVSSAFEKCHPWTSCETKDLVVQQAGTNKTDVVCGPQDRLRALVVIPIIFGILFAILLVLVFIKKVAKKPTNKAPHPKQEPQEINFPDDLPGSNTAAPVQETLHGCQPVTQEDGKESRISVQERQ

## Hsp70: Recombinant human heat shock protein 70, expressed and purified as His-tagged protein
Human CD40
  binding to CD40-transfected Cos-7 cells: bound to the surface of transfected cells but not to untransfected cells
ANA1 cells; LPS 20 μg/ml 7 h
  binding to LPS-stimulated ANA-1 cells: significant increase in binding
ANA1 cells; mock treated cells, 30 min, streptavidin-TRITC
  binding to unstimulated ANA-1 cells: weak but clearly detectable binding
